Measured values from patent publication US20240208954A1, “OXADIAZOLE COMPOUND, PREPARATION METHOD THEREFOR, PHARMACEUTICAL COMPOSITION AND USE THEREOF” (SHANGHAI INSTITUTE OF MATERIA MEDICA, CHINESE ACADEMY OF …, priority 2020, published 2024).
“Also recorded” adds a separate entry of the source.

System: GAN diet-induced NASH mouse model
Assay: In vivo anti-obesity, insulin resistance, NASH pharmacological activity test
Set-up: species or system C57BL/6 mice
Description: In this experiment, we investigated the effects of long-term oral administration of compound A1 on obesity, insulin resistance, hepatic lipid accumulation, inflammation and fibrosis in mice with a triple phenotype of obesity, insulin resistance and NASH induced by high fat, high cholesterol and high fructose (Gubra amylin, GAN).
Animal experiment: Male C57BL/6 mice were fed with GAN diet to induce the NASH model, and 12 weeks after modeling, the mice were randomly divided into 3 groups: low-fat diet control group (LFD, n=6), model control group (Model, n=10), and A1 group (10 mg/kg, n=10), and administered by gavage at a dose of 10 mg/kg and a volume of 10 mL/kg, once a day. During the period of administration, the food intake and body weight of animals were monitored; after 10 weeks of administration, glucose tolerance test (GTT) and insulin tolerance test (ITT) were performed; after 11 weeks of administration, fasting glucose and insulin were measured; after 12 weeks of administration, core body temperature and energy metabolism were measured; after 15 weeks of administration, body composition of mice was measured, and mice were sacrificed by dislocation after blood sampling via the posterior ocular venous plexus, and liver, subcutaneous fat, epididymal fat and brown fat were weighed, part the liver was fixed in 4% paraformaldehyde, and all tissues and serum were stored at −80° C. This experiment evaluated whether the compounds have the effect of weight loss by detecting energy metabolism, body composition, and fat weight of mice; whether the compounds have the effect of improving insulin resistance by GTT, ITT, detecting random blood glucose, fasting blood glucose and fasting insulin, and calculating HOMA-IR index; whether the compounds have the effect of […] by detecting serum liver function indexes ALT, AST, triglyceride, total cholesterol (T-CHO), LDL-C, HDL-C levels in serum, triglyceride, T-CHO, and hydroxyproline (characteristic amino acids of collagen) levels in liver, and by measuring mRNA expression levels of fatty acid ab initio synthesis and transport related genes (Srebp1c, Sed1, Fasn, Acaca, Cd36),β-oxidative metabolic pathways (Ppara, Cyp4A1,Cpt1b,Acot1,Acox1), inflammation related genes (Tnfa, Il1b, Casp1, Nlrp3, Pycard, Panx1, Cel2, Cel3) and fibrosis-related genes (Asma, Tgfb, Col1A1, Col3A1 , Col4A1 , Col4a2, Col5a2) and liver pathological changes (H&E staining, Oil Red O staining and Sirius Scarlet staining) and other indicators to evaluate whether the compounds have the effect of alleviating the disorder of lipid metabolism, inflammation and fibrosis in the pathological state of NASH.

[1] = 10 mg/kg gavage once a day, 15 weeks
[2] = 10 mg/kg gavage once a day, after 10 weeks
[3] = 10 mg/kg gavage once a day, after 11 weeks
[4] = 10 mg/kg gavage once a day, vs Model group
[5] = H&E-stained liver pathology sections, 10 mg/kg
[6] = liver, 10 mg/kg gavage once a day
[7] = overall statement, long-term administration

SMILES: CC(C)Oc1ccc(-c2nc(-c3ccc(CN4CC(C(=O)O)C4)c4ccccc34)no2)cc1C#N.Cl [Compound A1, 1-((4-(5-(3-cyano-4-isopropoxyphenyl)-1,2,4-oxadiazol-3-yl)naphthalen-1-yl)methyl) azetidine-3-carboxylic acid hydrochloric acid]
- HOMA-IR index (10 mg/kg gavage once a day): significantly reduced
- energy metabolism and thermogenesis (10 mg/kg gavage once a day): increasing energy metabolism and promoting thermogenesis
- food intake (10 mg/kg gavage once a day): without affecting
- liver T-CHO [1]: significantly reduced
- liver hydroxyproline [1]: significantly reduced
- liver triglycerides [1]: significantly reduced
- liver weight [1]: significantly reduced
- liver-to-body ratio [1]: significantly reduced
- serum ALT [1]: significantly reduced
- serum AST [1]: significantly reduced
- serum HDL-C [1]: significantly reduced
- serum LDL-C [1]: significantly reduced
- serum T-CHO [1]: significantly reduced
- serum triglycerides [1]: significantly reduced
- glucose tolerance (GTT) [2]: significantly improved
- insulin sensitivity (ITT) [2]: significantly improved
- fasting glucose [3]: significantly reduced
- fasting insulin [3]: significantly reduced
- body fat content [4]: reduced
- body weight gain [4]: significantly slowed down
- NAS scores [5]: significantly decreased
- lipid accumulation in the liver [5]: ameliorating (but not significant) effect
- liver ballooning degeneration and inflammation [5]: significantly alleviated
- liver lipid accumulation (Oil Red O stained sections, mainly by reducing lipid droplet size, 10 mg/kg): significantly reduced
- liver collagen deposition (Sirius Scarlet stained sections, 10 mg/kg): significantly reduced
- mRNA expression of fatty acid oxidation-related genes (Ppara, Cyp4A1, Acot1, Acox1) [6]: significantly upregulated
- mRNA expression of fibrosis-related genes (Asma, Tgfb, Col1A1, Col3A1, Col5a2) [6]: downregulated
- mRNA expression of inflammation genes (Tnfa, Il1b, Casp1, Pycard, Ccl2, Ccl3) [6]: downregulated
- serological and hepatic biochemical indexes (overall statement, FIG. 3): improved
- hepatic lipid metabolism disorders, inflammation and fibrosis (overall statement, FIG. 4): improved
- effect on NASH [7]: significant alleviating effect
- insulin resistance (symptoms) [7]: significantly alleviate; also recorded: alleviated
- obesity (symptoms) [7]: significantly alleviate; also recorded: alleviated
